# Assay results reported in article PMC3634901 (Bioorganic & medicinal chemistry letters, 2013).
# “Also recorded” adds a separate entry of the source.
# Experiments:
# [1] = test system: aPKC isoforms (PKCζ, PKCι); assay: kinase potency against aPKC isoforms; conditions: without discrimination for PKCζ or PKCι; in words
# [2] = test system: Erk activation; conditions: endothelial cells; cited from earlier work
# [3] = test system: AGC kinases; conditions: panel of 20 AGC kinases; cited from earlier work
# [4] = test system: Akt activation; conditions: endothelial cells; cited from earlier work
# [5] = test system: retinal endothelial cells; assay: VEGF/TNF-induced retinal endothelial permeability assay; assay type: cell-based; conditions: dose response; in words
# [6] = test system: TNF-induced NFκB activation; assay type: cell-based; conditions: single dose of 0.1 μM; in words
potency against aPKC isoforms [1],efficacy in preventing TNF/VEGF-induced endothelial permeability [5],SMILES,block of VEGF-induced Erk activation [2],specificity towards aPKC isoforms versus AGC family members [3],block of VEGF-induced Akt activation [4],inhibition of TNF-induced NFκB activity [6]
low micromolar to high nanomolar potency,good efficacy,COc1ccc(-c2csc(N)c2C(=O)OC(C)C)cc1OC [compound 6],does not block,high degree of specificity; also recorded: excellent selectivity,does not block,
,,COc1ccc(-c2csc(N)c2C(=O)OCc2ccccc2)cc1OC [compound 10],,,,significant inhibition
low micromolar to high nanomolar potency,,COc1cccc(COC(=O)c2c(-c3ccc(OC)c(OC)c3)csc2N)c1 [compound 14],,,,significant inhibition
,good efficacy,CCOC(=O)c1c(-c2ccc(N)cc2)csc1N [compound 29],,,,significant inhibition
low micromolar to high nanomolar potency,good efficacy,CCOC(=O)c1c(-c2ccc(N(C)C)cc2)csc1N [compound 30],,,,
low micromolar to high nanomolar potency,good efficacy,CCOC(=O)c1c(-c2ccc3c(c2)OCO3)csc1N [compound 32],,,,significant inhibition
